Measurements as given in US11918590B2 (Intas Pharmaceuticals Ltd., priority 2021, dated 2024).
Converted amounts (≈) assume the structure as drawn. Where two headings read alike, the source gives them in different places.

Legend:
[1] = cited from earlier work
[2] = Solubility study of clozapine at various pH and solvent; format: physicochemical
[3] = pH 4.0 to 4.5 of Acetate buffer

Solubility ([2]; 0.1N Hydrochloric acid) [µg/mL] | Solubility ([2]; Purified Water) [µg/mL] | Solubility [2, 3] [µg/mL] | Solubility ([2]; pH 6.8 of Phosphate buffer) [µg/mL] | Solubility ([2]; phosphate buffer, pH 6.8, aqueous buffer, thermodynamic from solid, pH 6.8 of Phosphate buffer, read-out: Solubility) [µg/mL] | Solubility ([2]; purified water, water, thermodynamic from solid, Purified Water, read-out: Solubility) [µg/mL] | Compound | solubility in water [1]
 |  |  |  |  |  | CN1CCN(C2=Nc3cc(Cl)ccc3Nc3ccccc32)CC1 [Clozapine, 8-chloro-11-(4-methyl-1-piperazinyl)-5H-dibenzo [b,e][1,4] diazepine] | very slightly soluble in water
28727 (≈ 87900 µM) | 31 (≈ 94.9 µM) | 4773 (≈ 14600 µM) | 121 (≈ 370 µM) |  |  | CN1CCN(C2=Nc3cc(Cl)ccc3Nc3ccccc32)CC1 [Micronized, Clozapine] | 
418 (≈ 1280 µM) |  | 730 (≈ 2230 µM) |  | 100 (≈ 306 µM) | 40 (≈ 122 µM) | CN1CCN(C2=Nc3cc(Cl)ccc3Nc3ccccc32)CC1 [Un-micronized, Clozapine] | 
